The values below come from US12180174B2, “A2-73 crystalline polymorph compositions of matter and methods of use thereof” (ANAVEX LIFE SCIENCES CORP., priority 2018, dated 2024).

Counter-ions that a name gives are not always drawn. Like-named read-outs stand apart in the source and are kept apart here. Some results are limits rather than exact numbers.

Data set [1] can be described thus: pH of a saturated solution. It counts as physicochemical. The conditions noted are these: saturated solution in water.
Data set [2] in a line: Solubility at defined pH. Format: physicochemical.
Data set [3] is described as follows: Hygroscopicity / gravimetric vapor sorption (GVS). Format: physicochemical. The conditions noted are these: for water uptake (GVS): 90% RH. As to the method:
This is confirmed by gravimetric vapor sorption (GVS) analysis, showing minimal water update (0.3% w/w) up to 90% RH. […] (peak temperature at ca. 91° C.). Upon further heating, Form I appears to sublime, beginning above ca. 120° C. with a weight loss of ca. 99% observed by 212.6° C. ^1H NMR spectra and HPLC-MS results were consistent with the structure of A2-73 freebase. […] FIG. 15 is a […]polarized-light microscopy (PLM) of Freebase Form I. XRPD pattern of Anavex2-73 freebase Form I obtained using copper Ka radiation is shown in FIG. 16.

For data set [4], the system named is unspecified progressive dementia. The experiment in a line: Cognitive function of patients with unspecified progressive dementia, enteric coated tablet. Format: in vivo, human. The conditions noted are these: 180 days. As to the method:
A person with unspecified progressive dementia is administered 30 mg of […]2-73 fumarate in an enteric coated tablet every other day for 180 days. Blood levels reveal about 25 mg per day are being administered. […] A person with unspecified progressive dementia is administered 50 mg of […]2-73 freebase in an enteric coated tablet every other day for 180 days. Blood levels reveal about 20 mg per day are being administered.

Data set [5] can be described thus: Blood levels in patients on extended release dosage forms. Format: in vivo, human. The conditions noted are these: person. As to the method:
A person presents with early signs of Alzheimer's disease. They are administered a pharmaceutical composition via transdermal patch containing 100 mg ANAVEX2-73 freebase with a 4 cm2 patch replaced approximately every three days administration for 120 days. Blood levels of about 10 ng/ml are being maintained.
A person presents with signs of early onset Alzheimer's disease. They are administered via a 9 cm2 transdermal patch containing a pharmaceutical composition containing 200 mg ANAVEX2-73 freebase with the patch replaced weekly for 180 days. Blood levels of about 12 ng/ml are being maintained.
A person with unspecified progressive dementia is administered 30 mg of ANAVEX2-73 fumarate in an enteric coated tablet every other day for 180 days. Blood levels reveal about 25 mg per day are being administered.
A person with unspecified progressive dementia is administered 50 mg of ANAVEX2-73 freebase in an enteric coated tablet every other day for 180 days. Blood levels reveal about 20 mg per day are being administered.

Data set [6] can be described thus: Solid form stability (storage, drying). Format: physicochemical.
A short description of data set [7]: Solvent solubility screen. Format: physicochemical. As to conditions: for solubility: read-out: Approx. Solubility.
For data set [8], the system named is Alzheimer's disease. Briefly: Cognitive function of patients with Alzheimer's disease, transdermal patch. Format: in vivo, human. As to the method:
A person presents with early signs of Alzheimer's disease. They are administered a pharmaceutical composition via transdermal patch containing 100 mg […]2-73 freebase with a 4 cm2 patch replaced approximately every three days administration for 120 days. Blood levels of about 10 ng/ml are being maintained. […] A person presents with signs of early onset Alzheimer's disease. They are administered via a 9 cm2 transdermal patch containing a pharmaceutical composition containing 200 mg […]2-73 freebase with the patch replaced weekly for 180 days. Blood levels of about 12 ng/ml are being maintained.

In data set [9] the test system is HeLa cells. Briefly: LC3-II autophagic flux, Western blot with Bafilomycin A1. It counts as cell-based, human. The conditions noted are these: 1 μM, BafiA1 2 μM, vs control. As to the method:
To study the effect of ANAVEX2-73 on autophagy, human HeLa cells were treated with the compound and autophagic activity was analyzed by investigating the flux of LC3-II. LC3-II is the lipidated form of LC3, which (partially) stays attached to autophagosomes and thus, gets degraded by lysosomes. Therefore, the quantification of the LC3-II flux, using Bafilomycin AI (BafiAi; 2 μM) for inhibition of lysosomal degradation, directly corresponds to cellular autophagic activity. […] There is a concentration-dependent and significant increase in the autophagic-flux following application of ANAVEX2-73: an increase of over 2-fold at 10 μM and over 1.5-fold at 1 μM ANAVEX2-73 (FIG. 35A). As standard positive control to provoke the induction of autophagy, HeLa cells were incubated with EBSS, which resembles nutrient deprivation as autophagy stimulus.
Cell culture and microscopy. HeLa and HEK293A cells were cultured in DMEM (Invitrogen, Carlsbad, CA, USA, 41965062) supplemented with active FBS (Life Technologies GmbH, Carlsbad, CA, USA, 10270106), 1×ABAM (Invitrogen, 15240-062) and 1 mM sodium pyruvate (Invitrogen, 1136-088). After medium change, the cells were treated for 2 h with 10, 1, and 0.1 μM ANAVEX2-73 and PRE-084 (Tocris, Bristol, UK, 0589), respectively; ANAVEX2-73 was provided by ANAVEX Life Sciences Corp, New York, NY, USA. Afterwards Bafilomycin A1 (Bafi.Ai; 2 μM) (Toronto Research Chemicals, North York, ON, Canada, B110000) or DMSO was added for a further 2 h and the cells were eventually harvested. Western blot analyses were performed as described previously. Briefly, cells were subjected to SDS-PAGE using precast NuPAGE 4%-12% Bis-Tris gels (Invitrogen, NP0322). Proteins were detected by chemiluminescence using the Amersham Imager 600 (GE). Confocal fluorescence microscopical analyses of HEK293A cells stably expressing GFP-LC3B were performed with the laser scanning microscope LSM 710 (Zeiss, Oberkochen).
(In general: In western blotting, separated proteins are transferred to a membrane and probed.)

The subject of data set [10] is ULK1. Briefly: ULK1 serine 555 phosphorylation, Western blot. It counts as cell-based, human. As to conditions: 1 μM; HeLa cells. The source says:
Activation of the serine/threonine protein kinase ULK1 (unc-51-like kinase 1) via phosphorylation at serine 555 indicates stimulation of the canonical autophagy pathway. […] It has to be mentioned that this activating ULK1 phosphorylation can be inhibited by mTOR as well as stimulated via AMPK kinase. Both are basal physiological sensors of nutritional conditions and key signal transducers of canonical autophagy stimulation. ULK1 is in fact the signal mediating the induction of the formation of the phagophore during the autophagy process and, therefore, a central promoter of autophagy. ULK1 itself functions in a complex with at least three protein partners: FI P200 (focal adhesion kinase family interacting protein of 200 kDa), ATG (autophagy-related protein) 13 (ATG13), and ATG101.
Cell culture and microscopy. HeLa and HEK293A cells were cultured in DMEM (Invitrogen, Carlsbad, CA, USA, 41965062) supplemented with active FBS (Life Technologies GmbH, Carlsbad, CA, USA, 10270106), 1×ABAM (Invitrogen, 15240-062) and 1 mM sodium pyruvate (Invitrogen, 1136-088). […] Proteins were detected by chemiluminescence using the Amersham Imager 600 (GE). Confocal fluorescence microscopical analyses of HEK293A cells stably expressing GFP-LC3B were performed with the laser scanning microscope LSM 710 (Zeiss, Oberkochen).

Regarding `CN(C)CC1CCOC1(c1ccccc1)c1ccccc1` (centres unmarked) [A2-73 hydrogen fumarate Form III, tetrahydro-N,N-dimethyl-2,2-diphenyl-3-furanmethanamine], in data set [1], the “pH of a saturated solution” value came out at 3.61. For the same molecule, in [2] (GI pH), the solubility (in general, how much of the substance goes into solution per volume) at GI pH is “lower solubility”. Moreover, the “solubility at gastric pH” value in data set [2] (gastric pH (generally about 1.5 to 3.5)) is “moderate solubility”. Moreover, the solubility entry in data set [2] (pH 1.2) is “ca. 43.0 mg/mL”; in data set [2] (pH 4.5), about 4.1 mg/mL; in data set [2] (pH 6.8, aqueous buffer, pH 6.8, read-out: solubility), about 12.6 mg/mL. In addition, the hygroscopicity entry in [3] was “slightly hygroscopic”. Besides, the “water uptake (GVS)” value in data set [3] is “ca. 0.9 % w/w”.

For `CN(C)CC1CCOC1(c1ccccc1)c1ccccc1` (centres unmarked) [A2-73 dihydrogen phosphate Form I, tetrahydro-N,N-dimethyl-2,2-diphenyl-3-furanmethanamine], the “pH of a saturated solution” value in data set [1] amounted to 2.66. In addition, the solubility is about 47.2 mg/mL in data set [2] (pH 1.2, simulated gastric fluid, pH 1.2, read-out: solubility) and about 33.1 mg/mL in data set [2] (pH 4.5). In data set [3], the hygroscopicity entry is “hygroscopic”.

As to `CN(C)CC1CCOC1(c1ccccc1)c1ccccc1.Cl` (centres unmarked) [Form II, tetrahydro-N,N-dimethyl-2,2-diphenyl-3-furanmethanamine hydrochloride], the hygroscopicity result in [3] (hydrochloride) is “slightly hygroscopic”.

Take `CN(C)CC1CCOC1(c1ccccc1)c1ccccc1` (centres unmarked) [ANAVEX2-73 fumarate, tetrahydro-N,N-dimethyl-2,2-diphenyl-3-furanmethanamine]: the cognitive function entry in data set [4] (30 mg enteric coated tablet every other day) is on record as “stabilizes during that period with no additional loss detected”. Besides, the “amount administered per day as revealed by blood levels” value in [5] (30 mg enteric coated tablet every other day, 180 days) is recorded as “about 25 mg per day”.

Regarding `CN(C)CC1CCOC1(c1ccccc1)c1ccccc1` (centres unmarked) [A2-73 sulfate Form II, tetrahydro-N,N-dimethyl-2,2-diphenyl-3-furanmethanamine], the “form stability on storage” value in data set [6] (post-storage at 40° C./75% RH) is “metastable, converting to A2-73 sulfate Form I”.

As to `CN(C)CC1CCOC1(c1ccccc1)c1ccccc1.Cl` (racemic) [Form VIII, tetrahydro-N,N-dimethyl-2,2-diphenyl-3-furanmethanamine hydrochloride], in data set [6] (dried after isolation wet with water), the “form stability on drying” value is recorded as “once dried, it converts to Form I”.

`CN(C)CC1CCOC1(c1ccccc1)c1ccccc1` (centres unmarked) [A2-73 freebase Form I, tetrahydro-N,N-dimethyl-2,2-diphenyl-3-furanmethanamine]: the solubility in data set [7] (1,4-dioxane, organic solvent or mixture) is at least 200 mg/mL; in [7] (1-butanol, organic solvent or mixture) it was at least 200 mg/mL; in data set [7] (2-butanone, organic solvent or mixture), at least 200 mg/mL; in [7] (N,N′-dimethylformamide, organic solvent or mixture) it was at least 200 mg/mL; in data set [7] (acetone, organic solvent or mixture) it was at least 200 mg/mL; in [7] (cyclohexane, organic solvent or mixture), at least 200 mg/mL. The solubility was at least 200 mg/mL in data set [7] (dimethyl sulfoxide, organic solvent or mixture); at least 200 mg/mL in data set [7] (heptane, organic solvent or mixture); at least 200 mg/mL in data set [7] (methyl acetate, organic solvent or mixture); at least 200 mg/mL in [7] (methyl isobutyl ketone, organic solvent or mixture); at least 200 mg/mL in data set [7] (nitromethane, organic solvent or mixture); at least 200 mg/mL in [7] (tetrahydrofuran, organic solvent or mixture). Also, the solubility in [7] (water) is under 5 mg/mL. Also, in data set [7] (all solvents of Table 10), the “solubility in the solvents tested (summary)” value is on record as “high solubility in all solvents tested, except water”. Besides, the water solubility entry in [2] (water) is “not highly water soluble”. In addition, the cognitive function result in [8] (early onset Alzheimer's disease, patch 200 mg, 9 cm2, weekly, 180 days) is “stabilizes during that period with no additional loss detected”; in data set [8] (early signs of Alzheimer's disease, patch 100 mg, 4 cm2, every three days, 120 days), “stabilizes during that period, with no additional loss detected”; in data set [4] (50 mg enteric coated tablet every other day) it was “stabilizes during that period with no additional loss detected”. Also, the hygroscopicity result in data set [3] is recorded as “non-hygroscopic”. The “water uptake (GVS)” value in data set [3] stood at 0.3 % w/w. Further, the “XRPD analysis post-GVS” value in [3] (post-GVS) is “no change in form”. Moreover, the “amount administered per day as revealed by blood levels” value in [5] (50 mg enteric coated tablet every other day, 180 days) is “about 20 mg per day”. For the same molecule, the blood levels maintained result in data set [5] (transdermal patch 100 mg, 4 cm2, replaced approximately every three days, 120 days) is given as “about 10 ng/ml”; in data set [5] (transdermal patch 200 mg, 9 cm2, replaced weekly, 180 days) it was “about 12 ng/ml”.

In the case of `O=C(OCCN1CCOCC1)C1(c2ccccc2)CCCCC1` [PRE-084, 2-morpholin-4-ylethyl 1-phenylcyclohexane-1-carboxylate, reference compound], the “increase in autophagic flux (LC3-II)” value in data set [9] is recorded as “over 1.5 fold”. In data set [10], the “ULK1 serine 555 phosphorylation” value was “up to 1.5 fold”.

As to `CN(C)CC1CCOC1(c1ccccc1)c1ccccc1.Cl` (centres unmarked) [Form III, tetrahydro-N,N-dimethyl-2,2-diphenyl-3-furanmethanamine hydrochloride], the hygroscopicity entry in data set [3] (hydrochloride) was “slightly-hygroscopic”.
